Results reported in patent publication US20070166781A1, “Method for assessing the virulence of pathogens and uses thereof” (priority 2002, published 2007).
Converted amounts (≈) assume the structure as drawn. Where two headings read alike, the source gives them in different places.

How the values were obtained:
Assay type in all cases: cell-based
[1] = test system: P. aeruginosa PT149 (nfxC); test: MIC in Mueller-Hinton broth by the microdilution method; conditions: Pseudomonas aeruginosa
Method: (§1) Bacteria were grown overnight at 37° C. on Luria-Bertani (LB) agar. Single colonies were inoculated into 5 ml PB (2% (wt/vol) peptone, 0.3% (wt/vol) MgCl2.6H2O, 1% (wt/vol) K2SO4) (Essar et al., 1990, J. Bacteriol., 172(2), 884-900) in a 50 ml flask and grown at 37° C. for 8 hr prior to use. […] Under these conditions, similar OD600s were obtained for each strain and the induction of quorum sensing was maximal. Minimal Inhibitory Concentrations (MICs) were determined in Mueller-Hinton broth by the microdilution method (Thornsberry et al., 1983 NCCLS, 3, 48-56).

[2] = test system: P. aeruginosa PT625 (nalB); test: as above; conditions: Pseudomonas aeruginosa
Method: as §1

P. aeruginosa PAO1 [3] = test: as above; conditions: Pseudomonas aeruginosa; strain PAO1
Method: as §1

P. aeruginosa PDO100 = test: as above; conditions: Pseudomonas aeruginosa
Method: as §1

[4] = test system: P. aeruginosa PT648 (nfxB); test: as above; conditions: Pseudomonas aeruginosa
Method: as §1

[5] = test system: P. aeruginosa PAO-BI (nfxC); test: as above; conditions: Pseudomonas aeruginosa
Method: as §1

P. aeruginosa PAO1 [6] = test: Growth of D. discoideum DH1-10 on a lawn of P. aeruginosa PAO1 grown with azithromycin; conditions: lawn of PAO1, 2 μg/ml azithromycin
Method: Quantitative measurements of D. discoideum growth on a lawn of pure P. aeruginosa were obtained by first plating 200 μl of P. aeruginosa culture on SM-agar. Droplets of 5 μl containing serial dilutions of D. discoideum cells (50.000 cells, 10.000 cells, 2.000, etc.) were then spotted on the bacterial lawn. The plates were incubated for 5 days at 25° C. and the highest dilution at which D. discoideum growth was visible was recorded.
However, in these experiments, Dictyostelium was grown in, the presence of both Klebsiella and Pseudomonas bacteria. […] To obtain more quantitative results, higher numbers of Dictyostelium cells were used to determine how many amoebae would be necessary to create a plaque in a lawn of P. aeruginosa. […] Consequently growth of Dictyostelium on the lasR mutant was scored as 1. On a lawn of the rhlR mutant PT462, amoebal growth could be observed in the first five dilutions of Dictyostelium (FIG. 2C; scored 5). […]
A lawn of P. aeruginosa PAO1 is grown in the presence of 2 μg/ml of azithromycin overnight. The bacterial lawn is then seeded with different dilutions of D. discoideum DH1-10 three days latter and the appearance of D. discoideum DH1-10 colonies is monitored. Growth of colonies of D. discoideum DH1-10 are recorded and scored between 1 and 2 (same scale as FIG. 2) as compared to a score of 0 in the absence of antibiotic.

[7] = strain PT149 (nfxC), read-out: MIC
[8] = strain PT648 (nfxB), read-out: MIC
[9] = strain PAO-BI (nfxC), read-out: MIC

Structure (SMILES)	MIC [1, 7] [mg/L]	MIC [2] [mg/L]	MIC (P. aeruginosa PAO1 [3]) [mg/L]	MIC (P. aeruginosa PDO100; strain PDO100, read-out: MIC) [mg/L]	MIC [4, 8] [mg/L]	MIC [5, 9] [mg/L]	Growth of colonies of D. discoideum DH1-10 in the presence versus absence of azithromycin (P. aeruginosa PAO1 [6])	MIC [1] [mg/L]	MIC (P. aeruginosa PDO100; PDO100) [mg/L]	MIC [4] [mg/L]	MIC [5] [mg/L]
C[C@@H](O)[C@H]1C(=O)N2C(C(=O)O)=C(SCCN=CN)C[C@H]12 [Imipenem]	4 (≈ 13.4 µM)	1 (≈ 3.34 µM)	1 (≈ 3.34 µM)	1 (≈ 3.34 µM)	1 (≈ 3.34 µM)	4 (≈ 13.4 µM)					
CC[C@H]1OC(=O)[C@H](C)[C@@H](O[C@H]2C[C@@](C)(OC)[C@@H](O)[C@H](C)O2)[C@H](C)[C@@H](O[C@@H]2O[C@H](C)C[C@H](N(C)C)[C@H]2O)[C@](C)(O)C[C@@H](C)CN(C)[C@H](C)[C@@H](O)[C@]1(C)O [azithromycin, Azithromycin]							significantly greater				
O=C(N[C@H](CO)[C@H](O)c1ccc([N+](=O)[O-])cc1)C(Cl)Cl [Chloramphenicol]		64 (≈ 198 µM)	32 (≈ 99 µM)					1060 (≈ 3290 µM)	32 (≈ 99 µM)	64 (≈ 198 µM)	1060 (≈ 3290 µM)
O=C(O)c1cn(C2CC2)c2cc(N3CCNCC3)c(F)cc2c1=O [Ciprofloxacin]	1 (≈ 3.02 µM)	0.5 (≈ 1.51 µM)	0.125 (≈ 0.377 µM)	0.125 (≈ 0.377 µM)	1 (≈ 3.02 µM)	1 (≈ 3.02 µM)					
CO/N=C(\C(=O)N[C@@H]1C(=O)N2C(C(=O)[O-])=C(C[n+]3cccc4c3CCC4)CS[C@H]12)c1csc(N)n1 [Cefpirome]	0.5 (≈ 0.972 µM)	4 (≈ 7.77 µM)	2 (≈ 3.89 µM)	2 (≈ 3.89 µM)	8 (≈ 15.5 µM)	0.5 (≈ 0.972 µM)					
C[C@H]1[C@H](NC(=O)/C(=N\OC(C)(C)C(=O)O)c2csc(N)n2)C(=O)N1S(=O)(=O)O [Aztreonam]	1 (≈ 2.3 µM)	16 (≈ 36.7 µM)	4 (≈ 9.19 µM)	2 (≈ 4.59 µM)	2 (≈ 4.59 µM)	2 (≈ 4.59 µM)					
